Each structure is given as a SMILES string.

The target in the assay is T1, Glutamate receptor ionotropic, kainate 4 (Homo sapiens, UniProt Q16099).
T1 sequence (Q16099 whole entry): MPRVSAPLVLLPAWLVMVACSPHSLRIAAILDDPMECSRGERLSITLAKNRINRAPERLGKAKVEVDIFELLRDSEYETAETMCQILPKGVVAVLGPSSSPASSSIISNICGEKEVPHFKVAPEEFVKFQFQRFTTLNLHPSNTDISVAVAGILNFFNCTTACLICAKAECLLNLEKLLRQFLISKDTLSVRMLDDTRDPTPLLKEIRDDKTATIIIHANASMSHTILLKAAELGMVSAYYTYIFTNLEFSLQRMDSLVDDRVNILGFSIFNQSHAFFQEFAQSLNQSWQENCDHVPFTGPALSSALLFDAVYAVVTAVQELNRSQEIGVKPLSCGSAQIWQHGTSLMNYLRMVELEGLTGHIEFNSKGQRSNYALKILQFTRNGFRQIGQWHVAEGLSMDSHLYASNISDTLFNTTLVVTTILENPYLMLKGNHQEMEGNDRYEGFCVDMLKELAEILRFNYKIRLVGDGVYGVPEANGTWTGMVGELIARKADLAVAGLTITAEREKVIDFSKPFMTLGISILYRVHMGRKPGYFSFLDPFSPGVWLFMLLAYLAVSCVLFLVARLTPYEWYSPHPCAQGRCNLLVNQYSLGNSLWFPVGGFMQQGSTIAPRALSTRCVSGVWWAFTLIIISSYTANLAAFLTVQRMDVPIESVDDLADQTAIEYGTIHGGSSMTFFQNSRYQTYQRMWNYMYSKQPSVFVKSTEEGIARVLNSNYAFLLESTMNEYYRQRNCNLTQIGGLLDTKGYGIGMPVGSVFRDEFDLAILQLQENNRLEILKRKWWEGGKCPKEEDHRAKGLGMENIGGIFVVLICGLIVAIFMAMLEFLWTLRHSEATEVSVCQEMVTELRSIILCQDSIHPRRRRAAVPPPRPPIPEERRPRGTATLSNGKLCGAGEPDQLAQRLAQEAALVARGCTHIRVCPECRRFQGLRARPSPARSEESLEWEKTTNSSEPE
Take `C/C(=C\C=C\[C@@H](C)C(=O)O)[C@H]1CN[C@H](C(=O)O)[C@H]1CC(=O)O`: the Ki (as a rule, the equilibrium dissociation constant of an inhibitor or competing ligand from its target) was determined as 10.5 nM. Turning to `N[C@@H](Cn1oc(=O)[nH]c1=O)C(=O)O` [2-amino-3-(3,5-dioxo[1,2,4]oxadiazolidin-2-yl)propionic acid], affinity was put at a Ki of 6.43 nM. Then `N#Cc1cc2nc(O)c(O)nc2cc1[N+](=O)[O-]` [7-Cyano-3-hydroxy-6-nitro-quinoxalin-2-ol anion], with more than 10000 nM; and `Cc1onc(O)c1CC(N)C(=O)O` (stereo not drawn) [(RS)-2-amino-3-(3-hydroxy-5-methylisoxazol-4-yl)-propionicacid], with 1970 nM. As for `C=C(C)[C@H]1CN[C@H](C(=O)O)[C@H]1CC(=O)O` [Digensaeure], the affinity, expressed as Ki, was 2.29 nM. Then `CN[C@H](CC(=O)O)C(=O)O` [NMDA], with more than 10000 nM; and `O=C1N=c2cc([N+](=O)[O-])c([N+](=O)[O-])cc2=NC1=O` [NSC_3140], with 8490 nM. With `CC(C)[C@H]1CN[C@H](C(=O)O)[C@H]1CC(=O)O` [dihydrokainic acid], the inhibition constant (Ki) amounted to 3840 nM. For `NC(CCC(=O)O)C(=O)O` (centres undefined) [glutamic acid dianion] the value was 18.3 nM.

For the origin of these results see BindingDB's records for doi:10.1046/j.1471-4159.1994.62010001.x (Allelix Biopharmaceuticals, 1994).
